Source: US20240390335A1, “PHARMACEUTICAL COMPOSITION CONTAINING BETA-LACTAM COMPOUND AND USE THEREOF” (priority 2021, published 2024)
Like-named read-outs stand apart in the source and are kept apart here.

Key:
[1] = system: Acinetobacter baumannii; test: MIC assay of individual compounds (microdilution, CLSI/NCCLS); type: cell-based; conditions: individual compound, read-out: MIC
Experimental: (§1) Mueller-Hinton broth (MH broth) medium, Trypticase Soy Broth (TSB Broth) medium, purchased from BD Difco, Cockeysville, MD, USA; • 96-well plate: Corning Costar, Cambridge, MA, USA; • Test method: the antibacterial activities were tested by the microdilution method according to the CLSI/NCCLS standard.
(§2) (1) Preparation of the test samples: 4 mg of each sample was taken, and was prepared into a test solution at 1,024 μg/mL with MH broth, and the test solution was diluted two-fold in a 96-well plate to prepare solutions of a series of gradient concentrations, the volume in each well being 90 μL.
(§3) (2) Preparation of a bacteria solution: The test strains were amplified by Trypticase Soy Broth (TSB Broth) according to the CLSI/NCCLS standard.
(§4) (3) Addition of the samples: a bacteria solution with a concentration of 6×10^5 cfu/mL was prepared, and 10 μL of the bacteria solution was pipetted into each well of the 96-well plate. Three parallel experiments were set up for each concentration and the results were averaged. To the negative control group, 10 μL of the bacterial solution and 90 μL MH broth were added.
(§5) (4) Incubation: the 96-well plate was placed in a 37° C. constant-temperature incubator for 18 hours, and the growth of the strains was observed. The drug concentration in the well with no microbial growth was recorded as the MIC.

[2] = system: Enterobacter cloacae; test: as above; type: cell-based; conditions: individual compound, read-out: MIC
Experimental: as §1, §2, §3, §4, §5

[3] = system: Escherichia coli; test: as above; type: cell-based; conditions: individual compound, read-out: MIC
Experimental: as §1, §2, §3, §4, §5

[4] = system: Klebsiella pneumoniae; test: as above; type: cell-based; conditions: Klebsiella pneumoniae, read-out: MIC
Experimental: as §1, §2, §3, §4, §5

[5] = system: Pseudomonas aeruginosa; test: as above; type: cell-based; conditions: individual compound, read-out: MIC
Experimental: as §1, §2, §3, §4, §5

[6] = system: Acinetobacter baumannii; test: Combined in vitro use, checkerboard dilution method; type: cell-based
Experimental: (§6) Mueller-Hinton broth (MH broth) medium, Trypticase Soy Broth (TSB Broth) medium, purchased from BD Difco, Cockeysville, MD, USA; • 96-well plate: Corning Costar, Cambridge, MA, USA; • Test method: the checkerboard dilution method was used for determination.
(§7) (1) Preparation of the test samples: 4 mg of each sample was taken and was prepared into a test solution at 2,048 μg/mL with MH broth, and the test solution was diluted two-fold in a 96-well plate to prepare solutions of a series of gradient concentrations.
as §3
(§8) (3) Addition of the samples: 10 μL of the bacteria solution with a concentration of 6×10^5 CFU/mL was pipetted into each well of the 96-well plate. Each well contained the antibacterial drugs (the compound of formula (I-1) and the compound of formula (I-2)) diluted two-fold with broth and the aforementioned lactamase inhibitor or efflux pump inhibitor. […] The samples were mixed thoroughly. Three parallel experiments were set up for each concentration and the results were averaged. To the negative control group, 10 μL of the bacterial solution and 90 μL MH broth were added.
(§9) (4) Incubation: the 96-well plate was placed in a 37° C. constant-temperature incubator for 18 hours, and the growth of the strains was observed.
(§10) (5) Calculation: The in vitro effect of each drug-inhibitor combination was analyzed by calculating the FICI value: FICI=(MIC of drug A in the combination/MIC of drug A alone)+ (MIC of drug B in the combination/MIC of drug B alone).
(§11) In order to ensure the reliability of the data, three repeated tests were conducted on different dates and the results were averaged.

[7] = system: Enterobacter cloacae; test: as above; type: cell-based; conditions: compound of formula (I-1) combined with avibactam; Enterobacter cloacae ATCC 2468
Experimental: as §6, §7, §3, §8, §9, §10, §11

[8] = system: Escherichia coli; test: as above; type: cell-based
Experimental: as §6, §7, §3, §8, §9, §10, §11

[9] = system: Pseudomonas aeruginosa; test: as above; type: cell-based
Experimental: as §6, §7, §3, §8, §9, §10, §11

[10] = system: Klebsiella pneumoniae ATCC BAA2146 (NDM-1); test: Protective effect on mice systemically infected (survival within 7 days); type: in vivo, ICR mice; conditions: for Number of animals survived: 5 mice
Experimental: ICR mice (half male and half female) with healthy appearance and a weight of 18 to 22 g were used. The mice were randomly grouped, with 5 mice (either male or female) in each dose group.
To the mice infected intraperitoneally with NDM-1-producing Klebsiella pneumoniae (at a dose of 3.0×10^6 CFU), drugs were administered once through the tail vein at certain doses (see Table 5) at 1 h and 6 h respectively after the infection for a total of two administrations, with the volume of the drugs administered being 10 mL/kg. The survival of the animals in each group was observed within 7 days, and the survival rates of the mice were calculated. The control group was not given any drugs, and given only physiological saline, and the seven-day survival rate of the mice was 0.
The protective effects of the compound of formula (I-1) administered alone and in combination with avibactam on mice systemically infected with Klebsiella pneumoniae ATCC BAA2146 (NDM-1) are shown in Table 5.

[11] = individual compound 16 mg/kg i.v. (tail vein) at 1 h and 6 h after infection
[12] = individual compound 32 mg/kg i.v. (tail vein) at 1 h and 6 h after infection

`CC1(C)[C@H](NC(=O)/C(=N\OC2(C(=O)O)CC2)c2csc(N)n2)C(=O)N1OS(=O)(=O)O` [Compound of formula (I-1)] gave an MIC ([1]; ATCC17978, Acinetobacter baumannii ATCC 17978) of 16 µg/mL, an MIC ([1]; ATCC19606, Acinetobacter baumannii ATCC 19606) of 16 µg/mL and an MIC ([1]; Acinetobacter baumannii CCPM(A)-P-101633(CRAB)) of 32 µg/mL. It also gave an MIC ([2]; ATCC2468, Enterobacter cloacae ATCC 2468) of 2 µg/mL, an MIC ([2]; Enterobacter cloacae CCPM(A)-P-111719) of 1 µg/mL and an MIC ([3]; ATCC2469, Escherichia coli ATCC 2469) of 1 µg/mL. It also gave an MIC ([3]; Escherichia coli CCPM(A)-P-071301) of 2 µg/mL, an MIC ([4]; ATCC2146, individual compound, Klebsiella pneumoniae ATCC 2146) of 2 µg/mL and an MIC ([4]; ATCC700603, individual compound, Klebsiella pneumoniae ATCC 700603) of 4 µg/mL. It also gave an MIC ([4]; individual compound, Klebsiella pneumoniae CCPM(A)-0814R18) of 2 µg/mL, an MIC ([4]; individual compound, Klebsiella pneumoniae CCPM(A)-0814R33) of 2 µg/mL and an MIC ([4]; individual compound, Klebsiella pneumoniae CCPM(A)-0817R61) of 64 µg/mL. The MIC ([4]; individual compound, Klebsiella pneumoniae CCPM(A)-081301) was 2 µg/mL, the MIC ([4]; individual compound, Klebsiella pneumoniae CCPM(A)-081705) was 2 µg/mL and the MIC ([4]; individual compound, Klebsiella pneumoniae CCPM(A)-081715) was 2 µg/mL. The MIC ([4]; individual compound, Klebsiella pneumoniae CCPM(A)-081716) was 128 µg/mL, the MIC ([4]; individual compound, Klebsiella pneumoniae CCPM(A)-081729) was 2 µg/mL and the MIC ([5]; Pseudomonas aeruginosa ATCC27853) was 16 µg/mL. The MIC ([5]; Pseudomonas aeruginosa CCPM(A)-P-091626(CRPA)) was 32 µg/mL, the MIC ([5]; Pseudomonas aeruginosa PAO1(CCPM(A)-P-09000032)) was 16 µg/mL and the “reduction of MIC values on combination” value ([6]; combined with berberine, Acinetobacter baumannii ATCC19606 and ATCC17978) was “four-fold”. The “reduction of MIC values on combination” value ([6]; combined with conessine, Acinetobacter baumannii ATCC19606) was “four-fold”, the MIC in combination ([6]; compound of formula (I-1) combined with PAβN, Acinetobacter baumannii ATCC 17978) was 16 µg/mL and the MIC in combination ([6]; compound of formula (I-1) combined with PAβN, Acinetobacter baumannii ATCC 19606) was 16 µg/mL. For the same molecule, the MIC in combination ([6]; compound of formula (I-1) combined with PAβN, Acinetobacter baumannii CCPM(A)-P-101633(CRAB)) was 16 µg/mL, the MIC in combination ([6]; compound of formula (I-1) combined with berberine, Acinetobacter baumannii ATCC 17978) was 4 µg/mL and the MIC in combination ([6]; compound of formula (I-1) combined with berberine, Acinetobacter baumannii ATCC 19606) was 4 µg/mL. It also gave an MIC in combination ([6]; compound of formula (I-1) combined with berberine, Acinetobacter baumannii CCPM(A)-P-101633(CRAB)) of 16 µg/mL, an MIC in combination ([6]; compound of formula (I-1) combined with conessine, Acinetobacter baumannii ATCC 19606) of 4 µg/mL and an MIC in combination [7] of 1 µg/mL. The MIC in combination ([8]; compound of formula (I-1) combined with avibactam, Escherichia coli ATCC 2469) was 0.125 µg/mL, the MIC in combination ([8]; compound of formula (I-1) combined with avibactam, Escherichia coli CCPM(A)-P-071301) was 0.25 µg/mL and the MIC in combination ([8]; compound of formula (I-1) combined with vaborbactam, Escherichia coli CCPM(A)-P-071301) was 0.5 µg/mL. The “reduction of MIC values on combination” value ([9]; combined with PAβN, Pseudomonas aeruginosa ATCC27853 and PAO1 (CCPM(A)-P-09000032)) was “eight-fold”, the “reduction of MIC value on combination” value ([9]; combined with PAβN, Pseudomonas aeruginosa CCPM(A)-P-091626 (CRPA)) was “four-fold” and the MIC in combination ([9]; compound of formula (I-1) combined with PAβN, Pseudomonas aeruginosa ATCC27853) was 2 µg/mL. It also gave an MIC in combination ([9]; compound of formula (I-1) combined with PAβN, Pseudomonas aeruginosa CCPM(A)-P-091626(CRPA)) of 8 µg/mL, an MIC in combination ([9]; compound of formula (I-1) combined with PAβN, Pseudomonas aeruginosa PAO1(CCPM(A)-P-09000032)) of 2 µg/mL and an MIC in combination ([9]; compound of formula (I-1) combined with berberine, Pseudomonas aeruginosa ATCC27853) of 16 µg/mL. For the same molecule, the MIC in combination ([9]; compound of formula (I-1) combined with berberine, Pseudomonas aeruginosa CCPM(A)-P-091626(CRPA)) was 32 µg/mL, the MIC in combination ([9]; compound of formula (I-1) combined with berberine, Pseudomonas aeruginosa PAO1(CCPM(A)-P-09000032)) was 16 µg/mL and the MIC in combination ([9]; compound of formula (I-1) combined with conessine, Pseudomonas aeruginosa PAO1(CCPM(A)-P-09000032)) was 16 µg/mL. The “Survival rate of animals (%)” value [10, 11] was 20%, the “Number of animals survived” value [10, 11] was 1 and the “Survival rate of animals (%)” value [10, 12] was 60%. For the same molecule, the “Number of animals survived” value [10, 12] was 3.
